# Laboratory results from patent US20210323949A1, “COMPOUNDS AND METHODS FOR INHIBITION OF MULTIPLE MYELOMA” (FLORIDA ATLANTIC UNIVERSITY BOARD OF TRUSTEES, priority 2018, published 2021).
# Columns and labels:
# [1] = tested on: multiple myeloma cell lines; assay: Viability/proliferation of multiple myeloma cell lines; type: cell-based; conditions: over 48 h
# [2] = tested on: 5TGM1 luciferase expressing multiple myeloma cells; assay: 5TGM1 multiple myeloma mouse model; type: in vivo, Mice (C57BL/6 KalwRij)
# Method: FIG. 5A is a set of images and FIG. 5B and FIG. 5C are graphs showing the efficacy of RF-036 (MMP-13i) for the treatment of multiple myeloma. FIG. 5A, 5B: Mice (C57BL/6 KalwRij) were inoculated with 5TGM1 luciferase expressing multiple myeloma cells (1×10^6) and after 10 days randomized into vehicle (n=7) or MMP-13i (n=6) groups. Mice were treated daily with RF-036 at 2 mg/kg via intraperitoneal injection. Bioluminescence (FIG. 5A) was quantitated every 3-4 days (FIG. 5B). […] Asterisks denote statistical significance.
# FIG. 7 is a Kaplan-Meier curve of overall survival time of 5TGM1 multiple myeloma bearing mice treated with RF-036 (MMP-13i) (n=6; 2 mg/kg daily) or vehicle control (n=7). The median survival time for the RF-036 group was 46 days compared to 41 for the vehicle control group.
# The overall survival time of 5TGM1 multiple myeloma bearing mice treated with RF-036 (MMP-13i) (n=6; 2 mg/kg daily) was compared to vehicle control (n=7) (FIG. 7). The median survival time for the RF-036 group was 46 days compared to 41 for the vehicle control group.
# [3] = tested on: bone marrow-derived macrophages (BMMs); conditions: bone marrow co-cultures/BMMs with M-CSF and RANKL, counted after 5 days
# [4] = tested on: MSCs and monocytic cells (RAW 267); assay: Proliferation of stromal cells of the bone microenvironment
# mature osteoclasts = assay: Inhibitor added to mature osteoclasts, TRAP-positive osteoclasts counted; conditions: TRAP positive osteoclasts counted after 5 days
smiles,measurement,setting,value
CNC(=O)[C@@H](NC(=O)c1ccc(-c2ccc(CSc3nc4c(c(=O)[nH]3)CCC4)c(F)c2)o1)C(C)C [RF-036],impact on viability of multiple myeloma cell lines,[1],up to 50%
same,IgG2b in serum (readout for tumor burden),"[2]; 2 mg/kg daily i.p., day 28, vs vehicle",significant differences between the vehicle and RF-036 groups
same,growth of multiple myeloma in vivo (bioluminescence),"[2]; 2 mg/kg daily, intraperitoneal injection",significantly reduces the growth of multiple myeloma
same,median survival time,"[2]; 5TGM1 bearing mice, 2 mg/kg daily, n=6",46 days
same,overall survival,"[2]; multiple myeloma bearing mice, 2 mg/kg daily",increases overall survival
same,osteoclast formation (number of TRAP-positive osteoclasts per well),[3],significantly mitigated osteoclast formation
same,effects on stromal cells (MSCs and monocytes),[4],minimal effects
same,cell viability of mature osteoclasts,mature osteoclasts,no effect on cell viability
